Results published in patent US11974993B2, “Solution formulations of CX-011” (City of Hope, priority 2021, dated 2024).
Entries after “also recorded” stand apart in the source; their conditions may differ.

Assays:
pSTAT3 and MYC = conditions: disclosed in U.S. Patent Publication No. 2020/0377494A1; cited from earlier work
[1] = tested on: aggrecan and collagen neoepitopes; conditions: disclosed in U.S. Patent Publication No. 2020/0377494A1; cited from earlier work
[2] = Dissolution of solid CX-011 in solvents and excipient solutions, determined by visual inspection; type: physicochemical
Description: Confirmation of dissolution can be confirmed by visual inspection, either by the naked eye or by microscope, to detect the presence of undissolved particles. Spectroscopic methods can also be used, such as light scattering detection or absorbance spectroscopy. Apparatuses for such spectroscopic detection are well-known in the art.
Solid CX-011 (5 mg) was mixed in a solution of 20%-40% 2-Hydroxypropyl)-β-cyclodextrin (Accelachem) in water (10 mL) and the mixture sonicated for 30 minutes. Dissolution determined by visual inspection. Not soluble.
Solid CX-011 (5 mg) was mixed in a solution of 20%-40% 2-Hydroxypropyl)-β-cyclodextrin (Accelachem) in water (10 mL) and 50 μL 1N HCl and the mixture sonicated for 30 minutes. Dissolution determined by visual inspection. Not soluble.
Solid CX-011 (4 mg) was mixed in a solution of 3N HCl aqueous (2 mL) and the mixture sonicated for 30 minutes. Dissolution determined by visual inspection. Not soluble.
Solid CX-011 (2.6 mg) was mixed in a solution of ˜4N HCl in methanol (200 uL) and the mixture sonicated for 30 minutes. Dissolution determined by visual inspection. Not soluble.
Solvent was evaporated. The remaining residue was washed with ether twice, then dried. The dried residue was mixed with water (10 mL) and the mixture sonicated for 30 minutes. Dissolution determined by visual inspection. Not soluble.
Solid CX-011 (1 mg) was mixed in a solution of 10% polyvinylpyrrolidone K-30 (10 mL) and the mixture sonicated for 30 minutes. Dissolution determined by visual inspection. Not soluble.
Solid CX-011 (1.5 mg) was mixed in ethanol (0.5 mL) and the mixture sonicated for 30 minutes. Dissolution determined by visual inspection. Not soluble.
Solid CX-011 (3 mg) was mixed in propylene glycol (0.5 mL) (Spectrum) and the mixture sonicated for 30 minutes. Dissolution determined by visual inspection. Not soluble.
Water (0.5 mL) was added.
Solid CX-011 (2.8 mg) was added to PEG400 (0.5 mL) (Spectrum) and mixed on a vortexer until dissolved. Water (0.5 mL) was added.
Solid CX-011 (3.0 mg) was mixed in 30% Kolliphor® HS 15 (5 mL) (Sigma) and the mixture sonicated for 30 minutes. Dissolution determined by visual inspection.
Solid CX-011 (15 mg) was mixed in polysorbate 80 (1 mL) and the mixture sonicated for 30 minutes. The solution was clear.
(§1) 15 mg CX-011 was added to a 50 mL tube. A volume of 5-10 mL 30% kolliphor HS was added. […] Distilled water or other physiology buffer, for example, PBS or saline was added to the above completely dissolved solution to final volume 100 mL with gently stirring. The solution can be filtered through 0.22 um filter. The appearance and pH value was noted. The solution was clear with pH value 5-5.5 for water and saline solution and is 7.2 for PBS solution. […] The final Kolliphor HS concentration in solution is about 1.5%-3%.

[3] = Properties of the CX-011 solution in Kolliphor HS 15: pH, 0.22 um filtration with UV absorbance at 323 nm, storage stability by appearance and HPLC; type: physicochemical
Description: Preparation of 30% (w/v) Kolliphor HS 15 in aqueous solution. Solid Kolliphor HS 15 was immersed in a water bath at 37° C. until melted. A 30% (w/v) solution was prepared by vortex mixing Kolliphor HS 15 with an appropriate amount of distilled water. The mixture was filtered through a 0.22 um PES filter (Corning).
as §1

Dissolution by visual inspection ([2]; Example 1: 5 mg in 10 mL 20%-40% 2-hydroxypropyl-β-cyclodextrin in water, sonicated 30 minutes): Not soluble
Dissolution by visual inspection ([2]; Example 2: 5 mg in 10 mL 20%-40% 2-hydroxypropyl-β-cyclodextrin in water plus 50 μL 1N HCl, sonicated 30 minutes): Not soluble
Dissolution by visual inspection ([2]; Example 3: 4 mg in 2 mL 3N HCl aqueous, sonicated 30 minutes): Not soluble
Dissolution by visual inspection ([2]; Example 4: 2.6 mg in 200 uL ~4N HCl in methanol, sonicated 30 minutes): Not soluble
Dissolution by visual inspection ([2]; Example 5: 6 mg treated with 1 eq MeSO3H in CH2Cl2, evaporated, dried residue in 10 mL water, sonicated 30 minutes): Not soluble
Dissolution by visual inspection ([2]; Example 6: 1 mg in 10 mL 10% polyvinylpyrrolidone K-30, sonicated 30 minutes): Not soluble
Dissolution by visual inspection ([2]; Example 7: 1.5 mg in 0.5 mL ethanol, sonicated 30 minutes): Not soluble
Dissolution by visual inspection ([2]; Example 8: 3 mg in 0.5 mL propylene glycol, sonicated 30 minutes): Not soluble
Appearance after addition of water ([2]; Example 9: 4 mg in 0.5 mL DMA, then 0.5 mL water added): Precipitation was observed
Dissolution by visual inspection ([2]; Example 9: 4 mg in 0.5 mL DMA, vortexed): clear solution
Appearance after addition of water ([2]; Example 10: 2.8 mg in 0.5 mL PEG400, then 0.5 mL water added): Precipitation was observed
Dissolution by visual inspection ([2]; Example 10: 2.8 mg in 0.5 mL PEG400, vortexed): dissolved
Dissolution by visual inspection ([2]; Example 11: 3.0 mg in 5 mL 30% Kolliphor HS 15, sonicated 30 minutes): Dissolved—clear solution
Dissolution by visual inspection ([2]; Example 12: 15 mg in 1 mL polysorbate 80, sonicated 30 minutes): clear
Appearance after addition of water ([2]; Example 12: 15 mg in 1 mL polysorbate 80, then 10 mL water added): precipitate was observed
Appearance of the diluted solution ([2]; Example 14: 15 mg diluted to 100 mL with water, PBS or saline, final Kolliphor HS about 1.5%-3%): clear
Dissolution by visual inspection ([2]; Example 14: 15 mg in 5-10 mL 30% Kolliphor HS, sonicated 2 hours): clear solution
Difference of the concentration of CX-011 before or after filtration ([3]; Example 14: 0.22 um filter, UV absorbance at 323 nm): no significant difference
pH value of the solution ([3]; Example 14: PBS solution): 7.2
pH value of the solution ([3]; Example 14: water and saline solution): 5-5.5
Appearance of the solution on storage ([3]; Example 14 solution, after 1 week at room temperature): remained clear
Stability of the compound by HPLC analysis ([3]; Example 14 solution, under preparation and storage): stable
Compound: Cc1ccc(-c2csc(NC(=O)c3ccccn3)n2)cc1 [CX-011]
Levels of pSTAT3 and MYC (pSTAT3 and MYC): did not increase
Generation of aggrecan and collagen neoepitopes [1]: almost completely blocked
Solubility in aqueous solution ([2]; aqueous solution, general statement): poorly soluble; also recorded: poor solubility
